In patent US20110027388A1 (priority 2009, published 2011):
Like-named read-outs stand apart in the source and are kept apart here.

What was measured:
HIV-1 Ba-L isolate = assay type: cell-based; conditions: read-out: IC50 (50% inhibition of virus replication)
A549 cells [1] = system: A549 cells
A549 cells [2] = system: A549 cells; remark: listed apart in the source
HIV-1 = assay type: cell-based
Zaire Ebola GFP virus [3] = assay type: cell-based
Ebola virus = system: Ebola virus; parameters: species or system mice; conditions: mouse, in vivo, ip, 8 mg/kg
Zaire Ebola GFP virus [4] = conditions: read-out: IC50 for the fit
[5] = mouse, in vivo
Sindbis virus = conditions: cited from earlier work
HIV-1 NL4-3 isolate = assay type: cell-based; conditions: read-out: IC50 (50% inhibition of virus replication)
Zaire Ebola GFP virus [6] = assay type: cell-based; remark: listed apart in the source

N.N.N.N.N.N.[Cl-].[Cl-].[Cl-].[Co+3] [Cohex, Hexaamminecobalt(III) chloride]
IC50 (HIV-1 Ba-L isolate): 33.8 µM | CC50 (PBMCs): 833 µM | concentrations at which cytotoxicity was observed (PBMCs): above 100 μM | concentration until which no toxic effect appears (A549 cells [1]): about 0.1 mM | dead cells by PI staining (A549 cells [2]): almost no change | IC50 (HIV-1): 31.2 µM | suppression of viral expression (GFP) (Zaire Ebola GFP virus [3]): ~100% | survival versus PBS treatment (Ebola virus): improved survival rates | concentration until which no toxic effect appears (HepG2 cells): about 0.1 mM | IC50 (Zaire Ebola GFP virus [4]): 380 µM | viability (leveling off) (VeroE6 cells): 70-80% | viability (leveling off) (293T cells): 70-80% | tolerability [5]: no adverse reactions reported | cell viability and viral expression (Sindbis virus): effective in significantly enhancing cell viability and in depressing viral expression | IC50 (HIV-1 NL4-3 isolate): 28.6 µM | suppression of viral expression (GFP) (Zaire Ebola GFP virus [6]): ~100%
